Reference: patent US20040181820A1, “Nucleic acids for transforming fish cells and methods for their use” (priority 2001, published 2004)
Read-outs that look alike come from different tables or passages of the source.

Columns and labels:
[1] = test system: epithelioma papulosum cyprini cells (EPC)
Experimental: In vitro experiments in epithelioma papulosum cyprini cells (EPC) were performed to verify the mechanisin of action of the “suicide vectors”.
Cell transfection assays were made using Lipofectamine Plus following the instructions of the manufacturer (Gibco, BRL, Gaithersburg, Md.). After 48 hours, the cells were treated with 100 μM ZnCl2, an inducer of the MT promoter.
(100 μM). Cells transfected with the different constructs were left uninduced (a,d) or were treated with […] of ZnCl2 at 48 h. post-transfection (b,c,e,f).

rainbow trout fry = settings: for mortality of rainbow trout fry: 48 hours, fry 0.8 g
Experimental: Three different concentrations of ZnCl2 (1 μM, 10 μM, 100 μM) were assayed and analyzed for their toxic effects in rainbow trout fry (0.8 g).
Different concentrations of ZnCl2(10 mM, 5 mM, 2.5 mM, 1 mM, 100 μM, […] and 1 μM) were assayed and observed for their toxic effect in rainbow trout. […] After 30 days post-challenge, the correct dose (10 μM ZnCl2) is added to 90 fish per treatment. After 48 hours, PCR analysis with IHNV G and M specific primers is performed to verify that the DNA vaccines have been totally eliminated from muscle tissue of the vaccinated and Zinc exposed fish.

EPC cells = settings: 100, 150, or 200 μM
Experimental: Persistence of a DNA suicide vector (constructed according to Example 21) in transfected cells was assessed by a reverse transcriptase reaction coupled to PCR (RT-PCR). […] Approximately 24 hours after transfection, the cells were treated with non-toxic concentrations of ZnCl2 (100, 150, or 200 μM). Control cells were left untreated.
At 48 hours after the ZnCl2 addition, total RNA was isolated and an RT-PCR assay using IHNV-G specific primers (5′-[sequence]-3′ provided by SEQ. ID. NO: 2 and 5′-[sequence] [sequence]-3′ provided by SEQ. ID. NO: 3) was performed. PCR conditions were: 94° C. 30 sec, 55° C. 1 min and 72° C. 2 min.

fish cells = assay: Zinc induction of metallothionein promoter in fish cells (Example 14); format: cell-based; settings: 100 μM zinc dose
[2] = test system: rainbow trout MT promoter; assay: pMT-CAT reporter in medaka hatchlings with and without zinc (Example 14); format: in vivo; settings: medaka injected with pMT-CAT plasmid, stimulated with zinc vs unstimulated
Experimental: The activity of the rainbow trout MT promoter was examined by microinjecting plasmids containing pMT operably linked to the CAT reporter into fertilized eggs of medaka, as described in Inoue, et al., Supra. CAT activities were determined in hatchlings with and without stimulation with zinc. Only small trace levels of CAT activity were detected in unstimulated fish, but CAT activity increased in fish stimulated with zinc.

SMILES | effect of ZnCl2 on untransfected EPC control cells [1] | mortality of rainbow trout fry (rainbow trout fry; 1 μM and 10 μM in water) | mortality of rainbow trout fry (rainbow trout fry; 100 μM in water) | concentrations toxic for rainbow trout fry (rainbow trout fry; fry 1 g) | toxicity of ZnCl2 to transfected EPC cells (EPC cells) | toxicity in fish cells (fish cells) | nucleic acid expression mediated by the metallothionein promoter (fish cells; fish cells) | CAT activity in hatchlings [2]
[Cl-].[Cl-].[Zn+2] [ZnCl2] | not obviously affected | no mortalities | all fish immersed in 100 μM ZnCl2 had died | higher than 10 μM | non-toxic |  |  | 
[Zn] [zinc] |  |  |  |  |  | without toxicity | induces | increased
